ChEMBL document CHEMBL4837183, “Antiproliferative Bufadienolides from the Bulbs of Drimia altissima” (2021)

Assays:
Type in all cases: functional
HL-60 = test: Growth inhibition of human HL-60 cells measured after 48 hrs by SRB assay
Malme-3M = test: Growth inhibition of human Malme-3M cells measured after 48 hrs by SRB assay
UO-31 = test: Growth inhibition of human UO-31 cells measured after 48 hrs by SRB assay
A549 = test: Growth inhibition of human A549 cells measured after 48 hrs by SRB assay
MOLT-4 = test: Growth inhibition of human MOLT-4 cells measured after 48 hrs by SRB assay
SK-MEL-28 = test: Growth inhibition of human SK-MEL-28 cells measured after 48 hrs by SRB assay
HCC 2998 = test: Growth inhibition of human HCC 2998 cells measured after 48 hrs by SRB assay
NCI-H322M = test: Growth inhibition of human NCI-H322M cells measured after 48 hrs by SRB assay
MDA-MB-435 = test: Growth inhibition of human MDA-MB-435 cells measured after 48 hrs by SRB assay
SF-539 = test: Growth inhibition of human SF-539 cells measured after 48 hrs by SRB assay
HOP-92 = test: Growth inhibition of human HOP-92 cells measured after 48 hrs by SRB assay
T47D = test: Growth inhibition of human T47D cells measured after 48 hrs by SRB assay
SK-MEL-2 = test: Growth inhibition of human SK-MEL-2 cells measured after 48 hrs by SRB assay
IGROV-1 = test: Growth inhibition of human IGROV-1 cells measured after 48 hrs by SRB assay
UACC-257 = test: Growth inhibition of human UACC-257 cells measured after 48 hrs by SRB assay
SW-620 = test: Growth inhibition of human SW-620 cells measured after 48 hrs by SRB assay
LOX IMVI = test: Growth inhibition of human LOX IMVI cells measured after 48 hrs by SRB assay
SNB-75 = test: Growth inhibition of human SNB-75 cells measured after 48 hrs by SRB assay
ACHN = test: Growth inhibition of human ACHN cells measured after 48 hrs by SRB assay
NCI-H226 = test: Growth inhibition of human NCI-H226 cells measured after 48 hrs by SRB assay
NCI-H522 = test: Growth inhibition of human NCI-H522 cells measured after 48 hrs by SRB assay
HT-29 = test: Growth inhibition of human HT-29 cells measured after 48 hrs by SRB assay
SF-268 = test: Growth inhibition of human SF-268 cells measured after 48 hrs by SRB assay
OVCAR-5 = test: Growth inhibition of human OVCAR-5 cells measured after 48 hrs by SRB assay
UACC-62 = test: Growth inhibition of human UACC-62 cells measured after 48 hrs by SRB assay
U-251 = test: Growth inhibition of human U-251 cells measured after 48 hrs by SRB assay
SR = test: Growth inhibition of human SR cells measured after 48 hrs by SRB assay
MDA-MB-468 = test: Growth inhibition of human MDA-MB-468 cells measured after 48 hrs by SRB assay
SN12C = test: Growth inhibition of human SN12C cells measured after 48 hrs by SRB assay
SF-295 = test: Growth inhibition of human SF-295 cells measured after 48 hrs by SRB assay
NCI-H460 = test: Growth inhibition of human NCI-H460 cells measured after 48 hrs by SRB assay
K562 = test: Growth inhibition of human K562 cells measured after 48 hrs by SRB assay
KM12 = test: Growth inhibition of human KM12 cells measured after 48 hrs by SRB assay
SK-MEL-5 = test: Growth inhibition of human SK-MEL-5 cells measured after 48 hrs by SRB assay
NCI/ADR-RES = test: Growth inhibition of human NCI/ADR-RES cells measured after 48 hrs by SRB assay
CAKI-1 = test: Growth inhibition of human CAKI-1 cells measured after 48 hrs by SRB assay
DU-145 = test: Growth inhibition of human DU-145 cells measured after 48 hrs by SRB assay
MCF7 = test: Growth inhibition of human MCF7 cells measured after 48 hrs by SRB assay
COLO 205 = test: Growth inhibition of human COLO 205 cells measured after 48 hrs by SRB assay
NCI-H23 = test: Growth inhibition of human NCI-H23 cells measured after 48 hrs by SRB assay
SK-OV-3 = test: Growth inhibition of human SK-OV-3 cells measured after 48 hrs by SRB assay
RXF 393 = test: Growth inhibition of human RXF 393 cells measured after 48 hrs by SRB assay
PC-3 = test: Growth inhibition of human PC-3 cells measured after 48 hrs by SRB assay
SNB-19 = test: Growth inhibition of human SNB-19 cells measured after 48 hrs by SRB assay
Hs-578T = test: Growth inhibition of human Hs-578T cells measured after 48 hrs by SRB assay
786-0 = test: Growth inhibition of human 786-0 cells measured after 48 hrs by SRB assay
CCRF-CEM = test: Growth inhibition of human CCRF-CEM cells measured after 48 hrs by SRB assay
OVCAR-3 = test: Growth inhibition of human OVCAR-3 cells measured after 48 hrs by SRB assay
BT-549 = test: Growth inhibition of human BT-549 cells measured after 48 hrs by SRB assay
HOP-62 = test: Growth inhibition of human HOP-62 cells measured after 48 hrs by SRB assay
OVCAR-8 = test: Growth inhibition of human OVCAR-8 cells measured after 48 hrs by SRB assay
TK-10 = test: Growth inhibition of human TK-10 cells measured after 48 hrs by SRB assay
HCT-116 = test: Growth inhibition of human HCT-116 cells measured after 48 hrs by SRB assay
MDA-MB-231 = test: Growth inhibition of human MDA-MB-231 cells measured after 48 hrs by SRB assay
HCT-15 = test: Growth inhibition of human HCT-15 cells measured after 48 hrs by SRB assay
M14 = test: Growth inhibition of human M14 cells measured after 48 hrs by SRB assay
A498 = test: Growth inhibition of human A498 cells measured after 48 hrs by SRB assay

`C[C@]12CC[C@H]3[C@@H](CC[C@H]4C[C@@H](O)CC[C@@]43C=O)[C@@]1(O)CC[C@@H]2c1ccc(=O)oc1` was tested, and the GI50 (HL-60) was 3.41 µM, the GI50 (Malme-3M) was 3.47 µM and the GI50 (UO-31) was 1.6 µM. The GI50 (A549) was 562 nM, the GI50 (MOLT-4) was 665 nM and the GI50 (SK-MEL-28) was 6.05 µM. For the same compound, the GI50 (HCC 2998) was 8.74 µM, the GI50 (NCI-H322M) was 3.12 µM and the GI50 (MDA-MB-435) was 3.5 µM. For the same compound, the GI50 (SF-539) was 1.47 µM, the GI50 (HOP-92) was 3.22 µM and the GI50 (T47D) was 4.74 µM. The GI50 (SK-MEL-2) was 4.3 µM, the GI50 (IGROV-1) was 5.06 µM and the GI50 (UACC-257) was 4.5 µM. The GI50 (SW-620) was 1.34 µM, the GI50 (LOX IMVI) was 2370 nM and the GI50 (SNB-75) was 3.18 µM. It also gave a GI50 (ACHN) of 502 nM, a GI50 (NCI-H226) of 6.87 µM and a GI50 (NCI-H522) of 694 nM. It also gave a GI50 (HT-29) of 2700 nM, a GI50 (SF-268) of 1.07 µM and a GI50 (OVCAR-5) of 5.21 µM. The GI50 (UACC-62) was 3.2 µM, the GI50 (U-251) was 4.47 µM and the GI50 (SR) was 2030 nM. The GI50 (MDA-MB-468) was 8.23 µM, the GI50 (SN12C) was 877 nM and the GI50 (SF-295) was 1.98 µM. For the same compound, the GI50 (NCI-H460) was 556 nM, the GI50 (K562) was 4.28 µM and the GI50 (KM12) was 6.25 µM. For the same compound, the GI50 (SK-MEL-5) was 2.35 µM, the GI50 (NCI/ADR-RES) was 1490 nM and the GI50 (CAKI-1) was 1.5 µM. It also gave a GI50 (DU-145) of 1.18 µM, a GI50 (MCF7) of 0.99 µM and a GI50 (COLO 205) of 6.52 µM. For the same compound, the GI50 (NCI-H23) was 1.71 µM, the GI50 (SK-OV-3) was 5.63 µM and the GI50 (RXF 393) was 418 nM. The GI50 (PC-3) was 3.53 µM, the GI50 (SNB-19) was 6.41 µM and the GI50 (Hs-578T) was 739 nM. For the same compound, the GI50 (786-0) was 1.76 µM, the GI50 (CCRF-CEM) was 1.07 µM and the GI50 (OVCAR-3) was 1710 nM. The GI50 (BT-549) was 1.73 µM, the GI50 (HOP-62) was 1.1 µM and the GI50 (OVCAR-8) was 2830 nM. For the same compound, the GI50 (TK-10) was 2.58 µM, the GI50 (HCT-116) was 633 nM and the GI50 (MDA-MB-231) was 14.1 µM. For the same compound, the GI50 (HCT-15) was 2150 nM, the GI50 (M14) was 4.14 µM and the GI50 (A498) was 1130 nM.

For `CC(=O)OC[C@H]1O[C@@H](O[C@@H]2C=C3CC[C@@H]4[C@H](C(=O)C[C@]5(C)[C@@H](c6ccc(=O)oc6)CC[C@]45O)[C@@]3(C)CC2)[C@H](OC(C)=O)[C@@H](OC(C)=O)[C@@H]1OC(C)=O`, the GI50 (HL-60) was 7.37 µM, the GI50 (Malme-3M) was 9.73 µM and the GI50 (UO-31) was 6.06 µM. For the same compound, the GI50 (A549) was 4780 nM, the GI50 (MOLT-4) was 5120 nM and the GI50 (SK-MEL-28) was greater than 10 µM. It also gave a GI50 (HCC 2998) greater than 10 µM, a GI50 (NCI-H322M) greater than 10 µM and a GI50 (MDA-MB-435) greater than 10 µM. For the same compound, the GI50 (SF-539) was 6.01 µM, the GI50 (HOP-92) was greater than 10 µM and the GI50 (T47D) was greater than 10 µM. It also gave a GI50 (SK-MEL-2) greater than 10 µM, a GI50 (IGROV-1) greater than 10 µM and a GI50 (UACC-257) greater than 10 µM. The GI50 (SW-620) was 7.06 µM, the GI50 (LOX IMVI) was greater than 10000 nM and the GI50 (SNB-75) was greater than 10 µM. The GI50 (ACHN) was 2320 nM, the GI50 (NCI-H226) was greater than 10 µM and the GI50 (NCI-H522) was 3960 nM. The GI50 (HT-29) was greater than 10000 nM, the GI50 (SF-268) was 5.64 µM and the GI50 (OVCAR-5) was greater than 10 µM. The GI50 (UACC-62) was greater than 10 µM, the GI50 (U-251) was greater than 10 µM and the GI50 (SR) was greater than 10000 nM. The GI50 (MDA-MB-468) was greater than 10 µM, the GI50 (SN12C) was 4850 nM and the GI50 (SF-295) was 7.35 µM. For the same compound, the GI50 (NCI-H460) was 3530 nM, the GI50 (K562) was greater than 10 µM and the GI50 (KM12) was greater than 10 µM. For the same compound, the GI50 (SK-MEL-5) was 5.09 µM, the GI50 (NCI/ADR-RES) was greater than 10000 nM and the GI50 (CAKI-1) was 7.28 µM. For the same compound, the GI50 (DU-145) was 6.1 µM, the GI50 (MCF7) was 7.71 µM and the GI50 (COLO 205) was greater than 10 µM. The GI50 (NCI-H23) was 8.31 µM, the GI50 (SK-OV-3) was greater than 10 µM and the GI50 (RXF 393) was 2310 nM. It also gave a GI50 (PC-3) greater than 10 µM, a GI50 (SNB-19) greater than 10 µM and a GI50 (Hs-578T) of 3790 nM. The GI50 (786-0) was 7.33 µM, the GI50 (CCRF-CEM) was 6.97 µM and the GI50 (OVCAR-3) was 4000 nM. For the same compound, the GI50 (BT-549) was 5.01 µM, the GI50 (HOP-62) was 6.88 µM and the GI50 (OVCAR-8) was greater than 10000 nM. It also gave a GI50 (TK-10) of 6.22 µM, a GI50 (HCT-116) of 4440 nM and a GI50 (MDA-MB-231) greater than 10 µM. For the same compound, the GI50 (HCT-15) was greater than 10000 nM, the GI50 (M14) was greater than 10 µM and the GI50 (A498) was 2890 nM.
